Data on four compounds can be found in patent publication US11786535B1, “Methods of inhibiting cyclooxygenase” (KING FAISAL UNIVERSITY, priority 2023, dated 2023).

The target of assay [1] is COX-1 (Ovis aries, UniProt P05979). The assay can be described thus: COX inhibitor screening assay kit, COX-1. The following applies: three separate experiments. It is filed as biochemical. As to the method:
(§1) In test tubes, 25 mM Tris-HCl, pH 8.0, containing 5 mM EDTA, phenol, and 1 mM hematin was added. The test compounds were dissolved in DMSO and added in concentrations ranging from […] Dimethyl sulfoxide alone was applied to control test containers. COX-1 or COX-2 enzymes were added to the test tubes, which were then preincubated for 10 minutes at 37° C. The arachidonic acid substrate was added, and the tubes were further incubated at 37° C. for 2 minutes. The compound's immunochemical assay was used to calculate the amount of prostaglandin produced.
(§2) Three separate experiments were used to calculate the IC50 values. The selectivity index was calculated as follows: […]

Assay [2] concerns the target COX-2 (Homo sapiens (Human), UniProt P35354). In words: COX inhibitor screening assay kit, COX-2. Conditions: for SI (selectivity index): calculated from COX-1 and COX-2 IC50; for IC50: three separate experiments. It is filed as biochemical. On the procedure: as §1, §2

Structures are written as SMILES.

What is called IC50 is the concentration that inhibits the measured activity by half. Lower therefore signals greater potency.

COX-1, sequence (P05979 25-600 limits assumed): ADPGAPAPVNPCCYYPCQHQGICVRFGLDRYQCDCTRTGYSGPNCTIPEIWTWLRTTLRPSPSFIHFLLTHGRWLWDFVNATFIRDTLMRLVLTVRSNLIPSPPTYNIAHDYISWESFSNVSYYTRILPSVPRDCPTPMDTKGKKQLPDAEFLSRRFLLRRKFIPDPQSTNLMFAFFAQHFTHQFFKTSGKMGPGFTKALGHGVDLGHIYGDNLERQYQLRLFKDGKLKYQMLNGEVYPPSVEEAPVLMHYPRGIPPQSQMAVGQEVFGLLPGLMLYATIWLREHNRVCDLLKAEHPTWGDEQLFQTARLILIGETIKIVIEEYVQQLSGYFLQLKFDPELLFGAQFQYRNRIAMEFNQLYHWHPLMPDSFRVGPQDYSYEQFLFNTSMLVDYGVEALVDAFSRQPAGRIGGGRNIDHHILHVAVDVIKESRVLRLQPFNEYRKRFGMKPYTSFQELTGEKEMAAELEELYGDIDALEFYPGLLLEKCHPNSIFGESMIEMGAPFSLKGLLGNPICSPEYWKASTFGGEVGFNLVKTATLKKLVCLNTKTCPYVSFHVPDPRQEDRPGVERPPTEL
COX-2, sequence (P35354 18-604): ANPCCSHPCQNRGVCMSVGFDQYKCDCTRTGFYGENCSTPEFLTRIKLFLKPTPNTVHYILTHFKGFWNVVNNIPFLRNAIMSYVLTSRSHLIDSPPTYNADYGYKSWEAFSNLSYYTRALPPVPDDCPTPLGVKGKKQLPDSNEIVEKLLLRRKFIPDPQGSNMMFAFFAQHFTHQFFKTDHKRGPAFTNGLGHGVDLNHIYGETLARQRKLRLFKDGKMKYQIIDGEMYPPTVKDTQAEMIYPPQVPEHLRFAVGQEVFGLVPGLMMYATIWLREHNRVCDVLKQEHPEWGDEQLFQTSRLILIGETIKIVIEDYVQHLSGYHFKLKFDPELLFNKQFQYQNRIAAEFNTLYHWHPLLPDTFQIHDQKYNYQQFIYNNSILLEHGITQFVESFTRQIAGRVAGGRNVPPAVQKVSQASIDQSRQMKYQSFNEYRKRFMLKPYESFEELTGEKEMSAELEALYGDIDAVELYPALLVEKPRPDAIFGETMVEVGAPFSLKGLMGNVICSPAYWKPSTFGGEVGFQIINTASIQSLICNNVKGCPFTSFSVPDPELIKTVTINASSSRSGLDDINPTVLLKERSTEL

For the compound `O=C(O)CC1COCCN1Cc1cccc(-c2ccccn2)c1` (stereo not drawn) [Compound 3, {4-[3-(2-pyridinyl)benzyl]-3-morpholinyl}acetic acid], in assay [1], the IC50 came out at 11.5 ± 0.13 µM. Besides, in assay [2], the “SI (selectivity index)” value is 190.88 and the IC50 was determined as 0.06 ± 0.075 µM.
For `O=C(O)COc1ccc(Cl)cc1C1CC(=O)Nc2cc3[nH]ncc3cc21` (stereo not drawn) [Compound 4, [4-chloro-2-(7-oxo-5,6,7,8-tetrahydro-1H-pyrazole[4,3-g]quinoline-5-yl)phenoxy]acetic acid] the same measures were 9.19 ± 0.046 µM, 95.068 and 0.097 ± 0.015 µM.
The matching figures for `COc1cccc(-c2nn(-c3ccccc3)cc2CN(C)CCc2cn[nH]c2)c1` [Compound 2, N-{[3-(3-methoxyphenyl)-1-phenyl-1H-pyrazol-4-yl]methyl}-N-methyl-2-(1H-pyrazol-4-yl)ethanamine]: 10.6 ± 0.33 µM, 132.64 and 0.08 ± 0.009 µM.
On to `COc1ccc(CN(Cc2ccc(F)cc2)CC2CCCO2)cc1CO` (stereo not drawn) [Compound 1], for which the IC50 in assay [1] is 7.62 ± 0.05 µM; in assay [2] it was 0.21 ± 0.01 µM. Further, in assay [2], the “SI (selectivity index)” value is listed as 36.3.
